Measured values reported in patent US7820795B2, “Lactobacillus fermentum N-desoxyribosyl transferases and the use thereof for enzymatic synthesis of 2′, 3′—didesoxynucleosides and 2′,3′- didehydro-2′,3′- didesoxynucleosides” (Institut Pasteur, priority 2004, dated 2010).

Assays:
[1] = biological target: T1, Lactobacillus fermentum N-deoxyribosyl transferase (NTD) variant LFA15T, mutation A15T, SEQ ID No. 4 (Limosilactobacillus fermentum, UniProt Q6YNI5, A15T); test: Enzymatic activity tests (dT+C, ddT+C and d4T+C reactions), mutated enzyme LFA15T; assay type: biochemical; conditions: mutant LFA15T; deoxyribosyl donor + C (cytosine)
T1 construct: crude extract or purified
T1 sequence (Q6YNI5 1-168 A15T): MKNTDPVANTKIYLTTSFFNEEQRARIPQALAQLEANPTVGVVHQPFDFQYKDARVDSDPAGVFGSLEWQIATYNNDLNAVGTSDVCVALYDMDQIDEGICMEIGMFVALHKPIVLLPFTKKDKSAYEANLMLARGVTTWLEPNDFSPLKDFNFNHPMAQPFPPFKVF
Method: The sequencing of the plasmids present in the selected transformants of PAK 9 made it possible to identify a mutation in the sequence (ntd) having the effect of substituting a residue T for the residue A in position 15 in the corresponding protein sequence (SEQ ID No. 2) (mutation called A15T).
50 μl of enzymatic extract is added to 200 μl of 100 mM citrate buffer, pH 6.44, in the presence of 3 mM ddU or dU final and of 1 mM C final for the strain PAK9, the whole is incubated at 37° C. The progress of the reaction is monitored by TLC (silica; eluent: MeOH—CH2Cl2 (20/80)). […] The disappearance of the substrates and the formation of the products were also quantified by HPLC analysis. […]
(§1) The cells are then centrifuged for 15′ at 4000 rpm at 4° C., washed in 50 ml of phosphate buffer then the pellet obtained after centrifugation is preserved overnight at −20° C. […] The fractions are then analyzed by SDS-PAGE gel and the enzymatic activity determined. […] The protein concentration is determined by measuring the OD at 280 nm. […]
The enzymatic activities of the native and mutant N-deoxyribosyl transferases of L. leichmannii (LL and LL G9S) and of L. fermentum (LF and LFA15T) in the exchange reactions dT+C ? dC+T, ddT+C ? ddC+T and d4T+C ? d4C+T were evaluated starting from crude extracts or purified proteins. […]

[2] = biological target: T2, Lactobacillus fermentum N-deoxyribosyl transferase (NTD, LF), native/wild type, SEQ ID No. 2 (Limosilactobacillus fermentum, UniProt Q6YNI5); test: Enzymatic activity tests (dT+C, ddT+C and d4T+C reactions), native enzyme LF; assay type: biochemical; conditions: deoxyribosyl donor + C (cytosine)
T2 construct: crude extract or purified
T2 sequence (Q6YNI5 1-168): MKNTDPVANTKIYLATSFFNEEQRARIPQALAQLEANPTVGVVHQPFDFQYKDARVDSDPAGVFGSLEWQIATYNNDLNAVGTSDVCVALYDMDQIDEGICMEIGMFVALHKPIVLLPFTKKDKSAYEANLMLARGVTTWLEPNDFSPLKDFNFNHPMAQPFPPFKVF
Method: 50 μl of enzymatic extract is added to 200 μl of 100 mM citrate buffer, pH 6.44, in the presence of 3 mM ddU or dU final and of 1 mM C final for the strain PAK9, the whole is incubated at 37° C. The progress of the reaction is monitored by TLC (silica; eluent: MeOH—CH2Cl2 (20/80)). […] The disappearance of the substrates and the formation of the products were also quantified by HPLC analysis. The different products are separated by analytical HPLC with a reversed-phase column (100-5C18) using a flow rate of 1 ml/min and a linear gradient of 5-25% CH3CN in a 10 mM triethyl ammonium acetate buffer at pH 7.5 for 20 minutes.
were used as primer in an amplification reaction under standard conditions using the ntd gene of L. fermentum cloned in pSU19 (pLF6) as DNA matrix. The amplification product was digested by the restriction enzymes Nde1 and BamH1 for 2 hours at 37° C., purified on agarose gel and inserted into the plasmid pET24a digested by the same enzymes then the ligation mixture is used to transform the strain β 2033. The plasmid DNA from the colonies was prepared and digested by the enzymes Nde1 and BamH1. […]
as §1
The enzymatic activities of the native and mutant N-deoxyribosyl transferases of L. leichmannii (LL and LL G9S) and of L. fermentum (LF and LFA15T) in the exchange reactions dT+C ? dC+T, ddT+C ? ddC+T and d4T+C ? d4C+T were evaluated starting from crude extracts or purified proteins.
These different values were measured according to the protocol described in the literature [P A Kaminski (2002) “Functional cloning, heterologous expression and purification of two different N-deoxyribosyl transferases from Lactobacillus helveticus” J. Biol. Chem; vol. […]

[3] = test system: HIV (human immunodeficiency virus); conditions: cited from earlier work

| SMILES | Kcat [1] | Kcat [2] | inhibition of replication of HIV [3] |
| --- | --- | --- | --- |
| Cc1cn([C@H]2C[C@H](O)[C@@H](CO)O2)c(=O)[nH]c1=O [dT] | 0.242 µmol/s/µg | 0.665 µmol/s/µg | – |
| Nc1ncnc2c1ncn2[C@H]1CC[C@@H](CO)O1 [ddA, 2′,3′-dideoxyadenosine] | – | – | effectively inhibit the replication of HIV |
| Cc1cn([C@H]2C=C[C@@H](CO)O2)c(=O)[nH]c1=O [d4T, reference compound] | – | 0.56 µmol/s/µg | – |
